According to US20080269152A1, “Nucleic acid binding oligonucleotides” (President and Fellows of Harvard College Harvard Medical …, priority 2003, published 2008):

Each sequence was assayed on internal ribosome entry site of the Hepatitis C virus, nucleotides 1-372 (HCV-IRES) RNA (assay: Hybridization of Cy3-labeled HCV-IRES RNA to DNA 5mer array). Conditions: address among the 40 most fluorescent in 3 out of 5 arrays; HCV-IRES RNA 92.7 nM, 4° C. overnight, scanned at 532 nm.
Assay type: binding
Description: A short DNA 5mer array was made to order by Combimatrix® Mukilteo, Wash. The array contained 1,000 of the […] possible DNA 5mer oligomers, and provided a separate address for each oligomer.
The target nucleic acid sequence used was the RNA transcript of the internal ribosome entry site of the Hepatitis C virus, nucleotides 1-372 (HCV-IRES). The RNA was prepared using a Megascrip™ T7 kit, nuclease free water and 5-(3aminoallyl)-UTP, which were all provided by Ambion Inc. A DNA template encoding the HCV-IRES was constructed according to standard techniques and linearized. RNA synthesis reaction mixture contained the following:
The reaction mixture was incubated at 30° C. overnight and purified using Rneasy® kit from QIAGEN, Inc. Target Sequence was then labeled using a Cy3 monoreactive dye pack from Amersham Biosciences, Inc. Dried HCV-IRES RNA was added to 20 μL of sodium carbonate (0.1 M pH 8.5) followed by 20 μL Cy3 dye solution. The reaction mixture was mixed and incubated at room temperature for 1 hour in the dark and purified using RNeasy® mini-kit.
The array was incubated with RNase free water for 30 minutes at 37° C. then washed three times with wash buffer (300 mM NaCl, 100 mM MgCl2). Hybridization was effected by adding a solution of HCV-IRES RNA (92.7 nM in 300 mM NaCl, 100 mM MgCl2 and 100 mM Tris pH 7.4) into the hybridization chamber. The array was incubated at 4° C. overnight in the dark and rinsed three times with wash buffer.
If an address corresponding to the same oligomer was selected in 3 out of 5 arrays analyzed, that oligomer was scored as likely binding ligand for the HCV-IRES RNA.
In the case of GGCCC, the “likely binding candidates for HCV-IRES” value is reported as “likely binding candidates”. With GGGGG the “likely binding candidates for HCV-IRES” value was “likely binding candidates”. For GGTCC, the “likely binding candidates for HCV-IRES” value was “likely binding candidates”. In the case of GTCCC, the “likely binding candidates for HCV-IRES” value is reported as “likely binding candidates”. With TTCCC the “likely binding candidates for HCV-IRES” value was “likely binding candidates”. With TTCTC the “likely binding candidates for HCV-IRES” value was “likely binding candidates”.
